≈ marks a conversion by molar mass, not a printed value. Calls of active or inactive are those of the source. The calls are words filed in the database; no cut-off is given here.
How the values were obtained:
Staphylococcus aureus [1] = assay: Induction of matured biofilm eradication in methicillin resistant Staphylococcus aureus YUSA145 assessed as log reduction in bacterial count in biofilm at 8 MIC incubated for 48 hrs by agar plate method; assay type: functional
[2] = Toxicity in BALB/c mouse assessed as change in ALT level at 50 mg/kg, ip measured after 1 to 3 days; assay type: organism-based; settings: in vivo, time 1-3 day
[3] = tested on: Staphylococcus epidermidis; assay: Induction of matured biofilm eradication in Staphylococcus epidermidis SE1457 assessed as log reduction in bacterial count in biofilm at 8 times MIC incubated for 48 hrs by agar plate method; assay type: functional
[4] = Toxicity in BALB/c mouse assessed as change in AST level at 50 mg/kg, ip measured after 1 to 3 days; assay type: organism-based; settings: in vivo, time 1-3 day
Staphylococcus aureus [5] = assay: Antibacterial activity against methicillin resistant Staphylococcus aureus USA300 infected in BALB/c mouse wound model assessed as log reduction in wound bacterial load at 20 mg/kg, ip administered every 12 hrs for 3 times and measured after 48 hrs in presence of DAP; assay type: functional
Staphylococcus aureus [6] = assay: Downregulation of arcC2 expression level in methicillin sensitive Staphylococcus aureus SA113 at 1/2 MIC incubated for 2 hrs by MS/MS analysis; assay type: functional
[7] = Toxicity in BALB/c mouse assessed as change in K+ level at 50 mg/kg, ip measured after 1 to 3 days; assay type: organism-based; settings: in vivo, time 1-3 day
[8] = tested on: Staphylococcus epidermidis; assay: Induction of matured biofilm eradication in Staphylococcus epidermidis SE1457 assessed as reduction in bacterial survival in biofilm at 8 times MIC incubated for 48 hrs by SYTO 9 staining based confocal fluorescence microscopic analysis; assay type: functional
Staphylococcus aureus [9] = assay: Downregulation of intracellular ATP level in methicillin sensitive Staphylococcus aureus SA113 at 1 to 4 times MIC incubated for 30 mins; assay type: functional, cell-based
Staphylococcus aureus [10] = assay: Inhibition of bacterial growth in methicillin resistant Staphylococcus aureus USA300 at MIC concentration measured upto 16 hrs; assay type: functional
Acinetobacter baumannii = assay: Antibacterial activity against Acinetobacter baumannii; assay type: functional, organism-based
[11] = tested on: Staphylococcus epidermidis; assay: Antibacterial activity against Staphylococcus epidermidis SE1457 in presence of oleic acid; assay type: functional, organism-based
Cell membrane = assay: Induction of cell membrane disruption in methicillin sensitive Staphylococcus aureus SA113 at 4 times MIC incubated for 2 hrs by TEM analysis; assay type: cell membranes
Staphylococcus aureus [12] = assay: Downregulation of acetyl-CoA level in methicillin sensitive Staphylococcus aureus SA113 at 1/2 MIC incubated for 30 mins; assay type: functional
[13] = tested on: Staphylococcus epidermidis; assay: Synergistic bactericidal activity against Staphylococcus epidermidis SE1457 assessed as planktonic cells killing by measuring log reduction in bacterial count at 8 times MIC measured after 24 hrs in presence of daptomycin; assay type: functional
Staphylococcus aureus [14] = assay: Synergistic antibacterial activity against methicillin resistant Staphylococcus aureus USA300 in presence of vancomycin; assay type: functional, organism-based
[15] = tested on: Staphylococcus epidermidis; assay: Inhibition of bacterial growth in Staphylococcus epidermidis SE1457 at MIC concentration measured upto 16 hrs; assay type: functional
Staphylococcus aureus [16] = assay: Antibacterial activity against methicillin sensitive Staphylococcus aureus SA113 assessed as fold increase in MIC in presence of phosphatidyl glycerol by chequerboard microdilution assay; assay type: functional
Staphylococcus aureus [17] = assay: Antibacterial activity against methicillin sensitive Staphylococcus aureus CHS101; assay type: functional
[18] = tested on: Staphylococcus epidermidis; assay: Induction of matured biofilm eradication in Staphylococcus epidermidis SE1457 assessed as log reduction in bacterial count in biofilm at 8 times MIC incubated for 48 hrs in presence of daptomycin by agar plate method; assay type: functional
Staphylococcus aureus [19] = assay: Antibacterial activity against methicillin sensitive Staphylococcus aureus SA113 assessed as fold increase in MIC in presence of phosphatidyl ethanolamine by chequerboard microdilution assay; assay type: functional
Staphylococcus aureus [20] = assay: Synergistic antibacterial activity against methicillin resistant Staphylococcus aureus USA300 assessed as fold increase in MIC in presence of daptomycin; assay type: functional
[21] = tested on: Staphylococcus epidermidis; assay: Induction of resistance development in Staphylococcus epidermidis SE1457 assessed as fold increase in MIC at 1/2 MIC incubated for 16 hrs after 20 serial passages; assay type: functional
Staphylococcus aureus [22] = assay: Antibacterial activity against methicillin resistant Staphylococcus aureus USA300 infected in BALB/c mouse wound model assessed as log reduction in wound bacterial load at 20 mg/kg, ip administered every 12 hrs for 3 times and measured after 48 hrs; assay type: functional
Staphylococcus aureus [23] = assay: Bactericidal activity against methicillin resistant Staphylococcus aureus USA300 assessed as planktonic cells killing by measuring log reduction in bacterial count at 2 to 8 times MIC measured after 24 hrs; assay type: functional
[24] = Toxicity in BALB/c mouse assessed as change in Na+ level at 50 mg/kg, ip measured after 1 to 3 days; assay type: organism-based; settings: in vivo, time 1-3 day
Staphylococcus aureus [25] = assay: Antibacterial activity against methicillin sensitive Staphylococcus aureus SA113 assessed as reduction in membrane fluidity at 1 to 4 times MIC incubated for 30 mins by fluorescence based assay; assay type: functional, organism-based
Enterococcus faecalis = assay: Antibacterial activity against Enterococcus faecalis OG1RF by broth microdilution method; assay type: functional
Pseudomonas aeruginosa = assay: Antibacterial activity against Pseudomonas aeruginosa; assay type: functional, organism-based
Staphylococcus aureus [26] = assay: Downregulation of pflA expression level in methicillin sensitive Staphylococcus aureus SA113 at 1/2 MIC incubated for 2 hrs by MS/MS analysis; assay type: functional
Staphylococcus aureus [27] = assay: Downregulation of arcC2 gene expression level in methicillin sensitive Staphylococcus aureus SA113 at 1/2 MIC by RT-qPCR analysis; assay type: functional
Staphylococcus aureus [28] = assay: Antibacterial activity against methicillin sensitive Staphylococcus aureus SA113 in presence of oleic acid; assay type: functional, organism-based
[29] = tested on: Staphylococcus epidermidis; assay: Induction of matured biofilm eradication in Staphylococcus epidermidis SE1457 assessed as reduction in bacterial survival in biofilm at 8 times MIC incubated for 48 hrs in presence of daptomycin by SYTO 9 staining based confocal fluorescence microscopic analysis; assay type: functional
[30] = tested on: Staphylococcus epidermidis; assay: Synergistic antibacterial activity against Staphylococcus epidermidis SE1457 assessed as fractional inhibitory concentration index in presence of daptomycin; assay type: functional
Staphylococcus aureus [31] = assay: Inhibition of bacterial growth in methicillin resistant Staphylococcus aureus USA300 at 1/2 MIC concentration measured upto 16 hrs; assay type: functional, organism-based
[32] = tested on: Staphylococcus epidermidis; assay: Synergistic antibacterial activity against Staphylococcus epidermidis SE1457 assessed as fold increase in MIC in presence of daptomycin; assay type: functional
Staphylococcus aureus [33] = assay: Antibacterial activity against methicillin sensitive Staphylococcus aureus SA113 assessed as fold increase in MIC in presence of phosphatidylcholine by chequerboard microdilution assay; assay type: functional
Enterococcus faecium = assay: Antibacterial activity against Enterococcus faecium EFM64 by broth microdilution method; assay type: functional
Staphylococcus aureus [34] = assay: Downregulation of fructosre-1, 6-diphosphate level in methicillin sensitive Staphylococcus aureus SA113 at 1/2 MIC incubated for 30 mins; assay type: functional
Staphylococcus aureus [35] = assay: Antibacterial activity against methicillin resistant Staphylococcus aureus YUSA151; assay type: functional
[36] = tested on: Staphylococcus epidermidis; assay: Antibacterial activity against Staphylococcus epidermidis SE1457 by broth microdilution method; assay type: functional
[37] = tested on: Staphylococcus epidermidis; assay: Antibacterial activity against Staphylococcus epidermidis SE1457 in presence of palmitic acid; assay type: functional, organism-based
Staphylococcus aureus [38] = assay: Antibacterial activity against methicillin sensitive Staphylococcus aureus SA113 assessed as increase in membrane permeability at 1 to 4 times MIC incubated for 30 mins by PI staining based fluorescence assay; assay type: functional, organism-based

SMILES: O=C(C1=C(O)C(=O)N(c2nnc(SCc3ccccc3Cl)s2)C1c1ccccc1O)c1cc2ccccc2o1 (stereo unspecified)
- log(activity) (Staphylococcus aureus [1]): 1
- Activity [2]: Non-Toxic
- log(activity) [3]: 1
- Activity [4]: Non-Toxic
- log(activity) (Staphylococcus aureus [5]): 3.5
- Activity (Staphylococcus aureus [6]): Active
- Activity [7]: Non-Toxic
- Activity [8]: <50%
- Activity (Staphylococcus aureus [9]): Active
- inhibition (INH) (Staphylococcus aureus [10]): 100%
- Activity (Acinetobacter baumannii): Active
- Activity [11]: inactive
- Activity (Cell membrane): Active
- Activity (Staphylococcus aureus [12]): Active
- log(activity) [13]: 4.5
- Activity (Staphylococcus aureus [14]): inactive
- inhibition (INH) [15]: 100%
- fold change (FC) (Staphylococcus aureus [16]): 16
- MIC (Staphylococcus aureus [17]): 12.5 µM (≈ 7.2 µg/mL)
- log(activity) [18]: 3
- fold change (FC) (Staphylococcus aureus [19]): 16
- fold change (FC) (Staphylococcus aureus [20]): 2
- Activity [21]: inactive
- log(activity) (Staphylococcus aureus [22]): 1
- log(activity) (Staphylococcus aureus [23]): 2.7
- Activity [24]: Non-Toxic
- Activity (Staphylococcus aureus [25]): Active
- MIC50 (Enterococcus faecalis): ≥ 50 µM
- MIC90 (Enterococcus faecalis): ≥ 50 µM
- Activity (Pseudomonas aeruginosa): Active
- Activity (Staphylococcus aureus [26]): Active
- Activity (Staphylococcus aureus [27]): Active
- Activity (Staphylococcus aureus [28]): inactive
- Activity [29]: >70%
- fractional inhibitory concentration index (FICI) [30]: <=0.5
- growth inhibition (GI) (Staphylococcus aureus [31]): Active
- fold change (FC) [32]: 2
- fold change (FC) (Staphylococcus aureus [33]): 16
- MIC50 (Enterococcus faecium): ≥ 50 µM
- MIC90 (Enterococcus faecium): ≥ 50 µM
- Activity (Staphylococcus aureus [34]): Active
- MIC (Staphylococcus aureus [35]): 12.5 µM (≈ 7.2 µg/mL)
- MIC50 [36]: ≥ 50 µM
- MIC90 [36]: ≥ 50 µM
- Activity [37]: inactive
- Activity (Staphylococcus aureus [38]): Active

Source: ChEMBL document CHEMBL5614418, “Discovery of novel dihydropyrrolidone-thiadiazole compound crosstalk between the YycG/F two-component regulatory pathway and cell membrane homeostasis to combat methicillin-resistant Staphylococcus aureus” (Eur J Med Chem, 2024)
